Assay results: patent US9260446B2, “Synthetic methods for spiro-oxindole compounds” (Xenon Pharmaceuticals Inc., priority 2009, dated 2016)

Target: hNav1.7 (Homo sapiens (Human), UniProt Q15858)
Settings: voltage-gated sodium channel blocking activity against hNav1.7

Chain of hNav1.7 (Q15858 whole entry): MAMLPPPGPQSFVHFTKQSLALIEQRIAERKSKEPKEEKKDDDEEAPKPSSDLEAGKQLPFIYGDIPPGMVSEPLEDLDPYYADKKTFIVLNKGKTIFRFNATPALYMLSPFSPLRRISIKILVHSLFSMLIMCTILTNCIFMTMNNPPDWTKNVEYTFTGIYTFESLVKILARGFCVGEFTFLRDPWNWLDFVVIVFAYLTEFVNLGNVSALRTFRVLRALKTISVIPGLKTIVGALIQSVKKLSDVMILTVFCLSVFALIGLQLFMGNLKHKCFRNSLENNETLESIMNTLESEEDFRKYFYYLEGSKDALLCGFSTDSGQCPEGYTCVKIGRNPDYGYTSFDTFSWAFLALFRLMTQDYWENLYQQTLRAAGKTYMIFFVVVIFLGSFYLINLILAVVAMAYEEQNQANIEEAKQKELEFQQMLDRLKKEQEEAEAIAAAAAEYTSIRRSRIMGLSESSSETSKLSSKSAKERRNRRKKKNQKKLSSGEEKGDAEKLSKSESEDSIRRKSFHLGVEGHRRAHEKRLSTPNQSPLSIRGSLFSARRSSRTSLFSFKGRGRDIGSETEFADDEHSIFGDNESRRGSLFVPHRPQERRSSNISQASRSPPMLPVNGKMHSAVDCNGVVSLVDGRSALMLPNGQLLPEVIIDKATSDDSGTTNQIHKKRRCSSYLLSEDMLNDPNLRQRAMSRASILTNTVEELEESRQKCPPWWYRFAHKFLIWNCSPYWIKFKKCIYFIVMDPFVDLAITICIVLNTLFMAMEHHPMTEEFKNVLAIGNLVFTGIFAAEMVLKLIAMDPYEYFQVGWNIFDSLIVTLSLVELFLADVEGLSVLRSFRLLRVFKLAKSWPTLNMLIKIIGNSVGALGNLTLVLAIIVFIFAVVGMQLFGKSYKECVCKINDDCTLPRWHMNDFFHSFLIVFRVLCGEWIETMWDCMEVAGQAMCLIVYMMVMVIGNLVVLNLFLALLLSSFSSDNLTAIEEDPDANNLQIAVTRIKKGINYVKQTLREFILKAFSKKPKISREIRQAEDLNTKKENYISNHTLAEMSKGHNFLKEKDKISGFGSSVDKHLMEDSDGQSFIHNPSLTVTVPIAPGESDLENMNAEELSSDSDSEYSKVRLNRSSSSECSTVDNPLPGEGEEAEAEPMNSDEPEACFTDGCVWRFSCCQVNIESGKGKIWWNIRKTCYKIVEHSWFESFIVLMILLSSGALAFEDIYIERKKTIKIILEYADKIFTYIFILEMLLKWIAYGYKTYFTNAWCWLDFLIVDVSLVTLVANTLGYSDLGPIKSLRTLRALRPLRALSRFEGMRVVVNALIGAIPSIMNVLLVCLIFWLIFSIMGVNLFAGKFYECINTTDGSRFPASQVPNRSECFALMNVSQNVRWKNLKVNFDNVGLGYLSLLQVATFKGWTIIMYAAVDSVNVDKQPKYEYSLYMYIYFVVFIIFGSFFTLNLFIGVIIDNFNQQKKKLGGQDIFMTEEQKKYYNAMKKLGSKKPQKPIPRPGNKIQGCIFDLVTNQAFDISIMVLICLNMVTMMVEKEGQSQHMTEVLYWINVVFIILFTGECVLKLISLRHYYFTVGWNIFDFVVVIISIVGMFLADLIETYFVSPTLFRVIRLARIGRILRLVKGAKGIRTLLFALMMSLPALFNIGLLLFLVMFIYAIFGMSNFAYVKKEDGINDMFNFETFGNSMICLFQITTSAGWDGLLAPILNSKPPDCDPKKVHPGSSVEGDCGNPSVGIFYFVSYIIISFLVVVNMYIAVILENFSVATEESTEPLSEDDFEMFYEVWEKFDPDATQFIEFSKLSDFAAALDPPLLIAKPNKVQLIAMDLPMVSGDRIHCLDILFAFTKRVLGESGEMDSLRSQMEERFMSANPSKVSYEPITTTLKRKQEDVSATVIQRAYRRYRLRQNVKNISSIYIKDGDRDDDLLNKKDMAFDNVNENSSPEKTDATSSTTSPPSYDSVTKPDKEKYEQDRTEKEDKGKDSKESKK

SMILES | IC50
O=C1N(Cc2ccc(C(F)(F)F)o2)c2ccccc2C12COc1cc3c(cc12)OCO3 (centres unmarked) [(I), 1′-{[5-(trifluoromethyl)-2-furyl]methyl}spiro[furo[2,3-f][1,3]benzodioxole-7,3′-indol]-2′(1′H)-one] | 7 nM
O=C1N(Cc2ccc(C(F)(F)F)o2)c2ccccc2[C@@]12COc1cc3c(cc12)OCO3 [(I-R), (R)-1′-{[5-(trifluoromethyl)furan-2-yl]methyl}spiro[furo[2,3-f][1,3]-benzodioxole-7,3′-indol]-2′(1′H)-one] | 4200 nM
O=C1N(Cc2ccc(C(F)(F)F)o2)c2ccccc2[C@]12COc1cc3c(cc12)OCO3 [(I-S), (S)-1′-{[5-(trifluoromethyl)furan-2-yl]methyl}spiro-[furo[2,3-f][1,3]benzodioxole-7,3′-indol]-2′(1′H)-one] | 3 nM
O=C1N(Cc2ncccc2C(F)(F)F)c2ccccc2C12COc1cc3c(cc12)OCCO3 (centres unmarked) [(II), 1′-{[3-(trifluoromethyl)pyridin-2-yl]methyl}-2,3-dihydrospiro[furo[2,3-g][1,4]benzodioxine-8,3′-indol]-2′(1′H)-one] | 15 nM
O=C1N(Cc2ncccc2C(F)(F)F)c2ccccc2[C@]12COc1cc3c(cc12)OCCO3 [(II-S), (S)-1′-{[3-(trifluoromethyl)pyridin-2-yl]methyl}-2,3-dihydrospiro[furo[2,3-g][1,4]benzodioxine-8,3′-indol]-2′(1′H)-one] | 5 nM
